Numbered stars: 1 amine (or outer) side, 2 acyl side, 3 side chain; on linkers, the order of the positions; unused ones are H or OH. Ends that are not written are not given here. Peptide text beside a SMILES is read from it. * marks the point of attachment. X1 = O=c1nc(N*)ccn1[C@@H]1O[C@H](CO)[C@@H](O)C1(F)F; Suc = O=C(CCC(=O)[*:2])[*:1]
Key:
Caco-2 monolayer [1] = assay: Transport across Caco-2 monolayer (permeability assay); conditions: HPLC-UV; for sum of the CPP absorbed from the apical side and found in the basolateral chamber at the end of the experiment: 60 μM apical in HBSS pH 7.4, 37 °C, remainder retained in cells or degraded; for percentage of amount applied apically recovered in the basolateral compartment at 120 min / sum of the CPP absorbed from the apical side and found in the basolateral chamber at the end of the experiment: 120 min
Description: (§1) A monolayer of Caco-2 cells was established in a 12-well plate [11]. […] Firstly, filters were pre-wet with 0.1 mL of culture medium for 2 minutes. Cells were seeded in the apical side (0.5 mL of cells per well, cell density of 4.0 x 10^5 cells/mL). The basolateral compartment was filled with 1.5 mL of culture medium and plates were incubated for 6 h (5 % CO2 humidified atmosphere at 37 °C). Then, to remove non-adherent cells and reduce the risk of multilayer formation, the medium in the apical side was removed and replaced with fresh medium. Cells were maintained for 29 days, replacing the culture medium from both compartments every other day.
(§2) All the solutions used were pre-warmed to 37 °C. Culture medium was replaced with fresh medium 24 h prior the beginning of the experiment. Next, this culture medium was removed first from the basolateral and then from the apical compartment. The apical compartment was carefully washed and then filled with 0.5 mL of Hank’s Balanced Salt Solution (HBSS, pH 7.4) and the basolateral compartment was also filled with 1.5 mL of HBSS. […] All tested compounds were prepared in HBBS (60 μM) and added to the apical compartment. Throughout this assay, the final volume was 0.4 mL in the apical compartment and 1.2 mL in the basolateral chamber. At t = 0 min, 0.45 mL of the donor solution was added to the apical compartment and a sample (0.05 mL) was immediately taken. The plate was incubated (lid-covered) at 37 °C under gentle shaking (190 rpm). Every 30 min for the next 2 h, a sample of 0.6 mL was taken from the basolateral compartment and replaced with the same volume of HBSS.
(§3) The concentrations of the evaluated compound in the basolateral and apical compartments were determined by high-performance liquid chromatography (HPLC) (VWR International LCC, LaChrom Ultra, Pennsylvania, USA). Elution was performed with a variable gradient of acetonitrile (ACN) in water containing 0.05 % trifluoroacetic acid (TFA), at a 0.7 mL/min flow and detection at variable wavelength (243 nm for gemcitabine and 220 nm for peptides and conjugates).

Caco-2 monolayer [2] = tested on: Caco-2 monolayer
Description: as §1, §2, §3

Caco-2 cells = assay: MTT cytotoxicity assay (cell growth inhibition); assay type: cell-based; conditions: Homo sapiens, 72 h incubation, 0.1-100000 μM, absorbance 570 nm, triplicate
Description: Human colon adenocarcinoma cell line Caco-2 (passage 25-47, kindly provided by the Department of Biomedicine of the Faculty of Medicine of University of Porto, and previously acquired via ATCC) was routinely maintained in Dulbecco’s Modified Eagle’s Medium (DMEM) supplemented with 10 % fetal bovine serum (FBS), L-glutamine and antibiotics penicillin and streptomycin. Cells were cultured at 37 °C in a 5 % CO2 humidified atmosphere. Culturing medium was replaced every 2-3 days and cell subculture was conducted once a week by trypsinization (0.25 % trypsin-EDTA wt/vol, 5, min, 37, °C).
The cell growth inhibitory activity of gemcitabine in Caco-2 cells was assessed with the MTT assay. Briefly, a growth curve was traced to determine the best cell density for the assay. […] Finally, MTT solution was removed, DMSO (100 μL per well) was added to solubilize the formazan crystals formed by viable cells and absorbance was measured at 570 nm in an automated microplate reader (Sinergy HT, Biotek Instruments Inc, Vermont, USA). […]
Gemcitabine cytotoxicity results were compared with the untreated control (mean of values was set to 100 %) and expressed as mean ± SEM. The statistical significance between different gemcitabine concentrations was analyzed in GraphPad Prism 7 (San Diego, EUA) using one-way ANOVA (p<0.05).

[3] = set-up: method as in PMID 16807468; conditions: administered intravenously; rapid deamination by cytidine deaminase in serum; cited from earlier work
Excerpt: Gemcitabine (Gem, dFdC or 2′,2′-difluoro-2′-deoxycytidine, Scheme 1) is a cytotoxic nucleoside analogue used as a chemotherapeutic drug.

[4] = Caco-2 monolayer (29 days, Transwell COL PTFE 0.4 μm), apical to basolateral, 60 μM in HBSS pH 7.4, 37 °C, 190 rpm

Compound	percentage of amount applied apically recovered in the basolateral compartment at 120 min (Caco-2 monolayer [1]; [4])	sum of the CPP absorbed from the apical side and found in the basolateral chamber at the end of the experiment (Caco-2 monolayer [1]; Caco-2 monolayer) [%]	further results
CSCC[C@H](NC(=O)[C@@H](NC(=O)[C@@H]1CCCN1C(=O)[C@H](CC(C)C)NC(=O)[C@H](CCCCN)NC(=O)[C@H](Cc1c[nH]c2ccccc12)NC(=O)CCC(=O)Nc1ccn([C@@H]2O[C@H](CO)[C@@H](O)C2(F)F)c(=O)n1)C(C)C)C(N)=O [Gem-CPP6-1] ({X1-Suc}-WKLPVM-NH2)	9%		
CSCC[C@H](NC(=O)[C@@H](NC(=O)[C@@H]1CCCN1C(=O)[C@H](CC(C)C)NC(=O)[C@H](CCCCN)NC(=O)CCC(=O)Nc1ccn([C@@H]2O[C@H](CO)[C@@H](O)C2(F)F)c(=O)n1)C(C)C)C(=O)N[C@@H](Cc1c[nH]c2ccccc12)C(N)=O [Gem-CPP6-2] ({X1-Suc}-KLPVMW-NH2)	Approximately 31%		extent of permeation relative to Gem-CPP6-1 and Gem-CPP6-3 conjugates (Caco-2 monolayer [2]): about 3 fold
Nc1ccn([C@@H]2O[C@H](CO)[C@@H](O)C2(F)F)c(=O)n1 [Gemcitabine, 2′,2′-difluoro-2′-deoxycytidine]	18%		IC50 (Caco-2 cells): 52.4 µM; half-life [3]: 8 to 17 min; percentage found in the basolateral side after 30 minutes (Caco-2 monolayer [1]; Caco-2 monolayer (29 days, Transwell COL PTFE 0.4 μm), apical to basolateral, 60 μM in HBSS pH 7.4, 37 °C, 190 rpm, 30 min): 3%; additional percentage of drug crossing the membrane from 90 min (plateau) until 120 min (Caco-2 monolayer [1]; Caco-2 monolayer, apical to basolateral, 60 μM in HBSS pH 7.4, 37 °C, between 90 and 120 min): 1%
KLPVMW-NH2 [CPP6-2]	40%	84	
WKLPVM-NH2 [CPP6-1]	33%	50	
WVPTLK [CPP6-3]	37%	75	
